Measurements taken from patent publication US7365154B2, “Peptides antagonistic to an anti-angiogenic antibody and uses therefor” (Centocor, Inc., priority 2003, dated 2008).
Entries after “also recorded” stand apart in the source; their conditions may differ.

Tests used:
[1] = test system: M21, human melanoma cells; assay: Cell adhesion assay on vitronectin coated plates, CNTO95 with peptides; assay type: cell-based; details: FIG. 7
Procedure: For cell adhesion assays, Microtiter plates (Linbro-Titertek, ICN Biomedicals, Inc) were coated at 4° C. overnight with vitronectin (1 mg/ml). Immediately before use plates were rinsed with PBS and blocked for 1 hour with 1% BSA/PBS (pH 7.4). Adherent cells (M21, human melanoma cells) were labeled with Calcein AM fluorescent dye (Molecular Probes, Eugene, Oreg.) according to the manufacturer's instructions, harvested, washed twice, and suspended in 0.1% BSA in DMEM medium. Various concentration of Antibodies were incubated with peptides for 1 hrs. Cell density was adjusted to 5×10^5/ml and they were incubated with antibody and peptide solution for 15 min at 37° C. The cell-antibody mixture was added to wells (100 μl per well) and incubated for 1 h at 37° C. Plates were rinsed twice with PBS to remove unbound cells and adhesion was measured in a fluorescence plate reader (Fluoroskan) at 485-538 nm. Cell adhesion to BSA-coated wells served as a negative control. Isotype matched antibodies served as a negative control.

CNTO95 mAb = assay: ELISA for CNTO95 binding to synthetic peptide-coated plates; design: species or system human; details: plates coated with 100 μg/ml peptide, absorbance at 450 nm
Procedure: (§1) To verify the binding activity of synthetic peptides to CNTO95 mAb, ELISAs were performed using peptide-coated plates. PRO-Bind ELISA plates (Falcon) were coated with 100 μl (100 μg/ml) of either CEN 2319, CEN2322 or PBS buffer. Peptide-charged ELISA plates were incubated with 100 μl of various concentrations of CNTO95 mAb for 2 hours at 37° C., and the wells then were washed with PBS plus 0.5% Tween 20 (PBST). Binding was detected with a 1:5,000 dilution of peroxidase-conjugated goat anti-human IgG, Fc gamma fragment antibody (Jackson) and color development with 3,3′,5,5′-tetramethyl-benzidine dihydrochloride (TMB). The reaction was detected by reading the absorbance at 450 nm. PBS-coated wells were used as background control. […] Another set of negative control was performed using mAb CNTO1275 (FIG. 4C). The binding signal is negative.

[2] = test system: CNTO95 mAb binding to integrin αVβ3; assay: Competitive ELISA on plates coated with integrin αVβ3; design: species or system human; details: peptide 0 to 200 μg/ml
Procedure: (§2) Competitive ELISA on microtiter plates coated with integrins αVβ3 or αVβ5 were carried out to evaluate the binding specificity for CEN2319 peptide to CNTO95 mAb. 100 ul of 5 μg/ml either αVβ3 or αVβ5 (Chemicon, Temacula, Calif.) was coated on the ELISA plates at […] over night. Then, 100 μl of 2 μg/ml CNTO95 was pre-incubated at room temperature for 30 minutes with various concentration peptides (100 μl), ranging from 0 to 200 μg/ml. The peptide-antibody mixtures were then added to the integrin-coated microwells. Following incubation at 37° C. for 2 hours, the plates were washed thoroughly, and bound CNTO95 was detected using peroxidase-conjugated goat anti-human IgG, Fc gamma fragment antibody (1:5,000 dilution), followed by substrate addition as above.

[3] = test system: CNTO95 mAb binding to integrin αVβ5; assay: Competitive ELISA on plates coated with integrin αVβ5; design: species or system human; details: peptide 0 to 200 μg/ml
Procedure: as §2

CNTO95 [4] = assay: Positional substitution analysis: peptides spotted on nitrocellulose membrane probed with CNTO95; assay type: binding, human; design: key: +++: very strong; ++: strong; +: equivalent; ±: weak; Blank: negative; details: CEN2319 with one position substituted, + = equivalent
Procedure: In order to further understand the contribution of each amino acid residue in the binding, systematic substitution at each position were made and tested. The binding analysis was carried out by spotting the various peptides on a nitrocellulose membrane and probing with CNTO95 followed by HRP-conjugated goat-anti-human Fc antibody and color developed using a peroxidase substrate.

[5] = test system: A375.S2 cells (human melanoma cells); assay: Flow cytometry of CNTO95 binding to surface integrins of A375.S2 cells with or without peptides; assay type: cell-based; details: CNTO95 only 10 ug/ml, no peptide
Procedure: For the detection of surface integrins, A375.S2 cells (human melanoma cells) were harvested, rinsed, suspended in unsupplemented RPMI media. The antibody, CNTO95, was incubated at a final concentration of 10 ug/ml with or without peptides at the concentrations given in Table 1 for 1 hr. Then, the cell solution was added and incubated for an additonal 60 minutes on ice followed by addition of PE-labeled goat anti-human antibody IgG-Fc (10 ug/ml). Absence of primary antibody or substitution of primary antibody with isotype matched antibody served as negative controls. Cells were immediately analyzed with a FACS Scan II flow cytometer (Becton Dickinson, Mountain View, Calif.). […] For simplicity, the mean channel fluorescence for each peak was used as the relative staining value (Table 5).

CNTO95 [6] = assay: Titration microcalorimetry of synthetic peptides with CNTO95; assay type: binding, human
Procedure: Titration microcalorimetry is a technique used to measure equilibrium binding affinity by monitoring the enthalpy of binding as a function of titrant added to second molecule at fixed temperature. To determine binding affinities and stoichiometries of synthetic peptides for CNTO95, titration calorimetry experiments were carried out with a Microcal (Amherst, Mass.) MCS isothermal titration calorimeter. Protein concentrations were measured by absorbance at 280 nm. Aliquots of peptide were titrated into a fixed concentration of CNTO95 at 3 μM in Dulbecco's PBS. Heats of binding are monitored with each injection. Peptides were added until the observed heats approach the heats of diluted peptides into buffer. Calorimetry data were analyzed with Microcal ORIGIN software according to a single-site binding model in each case (Wiseman et al., Anal. Biochem. 179: 131-137, 1989). The model includes an equilibrium binding constant (Kd), a molar binding enthalpy change (ΔH) and a molar binding ratio for the binding reaction at 25° C. Table 3 gives the calculated CNTO95 binding properties of synthetic peptides from titration calorimetry data.

CEN2319 coated plates = assay: ELISA of other antibodies on CEN2319 coated plates; assay type: binding; details: negative control antibodies
Procedure: as §1

## DFRSWWDLEE (Phage Library Derived Sequence) [CEN2553, alternate antagonist peptide, 10-mer]
[1]
  effect on the inhibition of cellular adhesion by CNTO95 to vitronectin coated plates: indistinguishable from the peptide CEN2319

## DFRSWWDLSGYR [CEN2319]
CNTO95 mAb
  CNTO95 mAb binding to peptide-coated plates: recognized specifically; also recorded: specific binding
[2]
  competition with CNTO95 binding to αVβ3 (in words): inhibits
[3]
  competition with CNTO95 binding to αVβ5 (in words): significant inhibition; also recorded: inhibits
CNTO95 [4]; listed as D1D
  Intensity (relative density of color at each spot): +
CNTO95 [4]; listed as D7D
  Intensity (relative density of color at each spot): ++
CNTO95 [4]; listed as F2F
  Intensity (relative density of color at each spot): +
CNTO95 [4]; listed as G10G
  Intensity (relative density of color at each spot): +
CNTO95 [4]; listed as L8L
  Intensity (relative density of color at each spot): ++
CNTO95 [4]; listed as R3R
  Intensity (relative density of color at each spot): +
CNTO95 [4]; listed as R12R
  Intensity (relative density of color at each spot): +
CNTO95 [4]; listed as S4S
  Intensity (relative density of color at each spot): +
CNTO95 [4]; listed as S9S
  Intensity (relative density of color at each spot): +
CNTO95 [4]; listed as W5W
  Intensity (relative density of color at each spot): ++
CNTO95 [4]; listed as W6W
  Intensity (relative density of color at each spot): +
CNTO95 [4]; listed as Y11Y
  Intensity (relative density of color at each spot): +

## CNTO95: fully human IgG1, kappa monoclonal antibody recognizing integrins αVβ3 and αVβ5
[5]
  Mean Channel Fluorescence: 89.7

## DYRTA ADTTGLQ (DYRTAADTTGLQ; PEPTIDE (1)..(12) Residues 564 to 575 inclusive of human alpha V integrin subunit protein; listed as Homo sapiens) [CEN2322]
CNTO95 mAb
  CNTO95 mAb binding to peptide-coated plates: did not bind
[2]
  competition with CNTO95 binding to αVβ3 (in words): did not compete
[3]
  competition with CNTO95 binding to αVβ5 (in words): did not compete
CNTO95 [6]
  Comments (binding to CNTO95 by calorimetry): no evidence for CEN2322 peptide binding to CNTO95 mAb

## SPLFXPW [flanked by cysteine residues which form a disulfide bond]
CNTO95 mAb
  CNTO95 mAb binding to peptide-coated plates: no specific binding was detected

## CNTO1275: another human mAb to an unrelated antigen
CEN2319 coated plates
  antibody binding to CEN2319 coated plates: negative
